system: anaerobes and Gram positive aerobes; format: cell-based; details: dipped-disc Biospectrum assay at 1 mg/ml; result in words, zone sizes only in image Tables XIII-XV

SMILES | activity vs. anaerobes and Gram positive aerobes
CC(=O)N1CC(C(C)C)C1=O (racemic) [2-azetidinone, 1-acetyl-3-(1-methylethyl)-, (±)-] | high activity
CCCCCCCC(=O)N1CC(C(C)C)C1=O (racemic) [2-azetidinone, 3-(1-methlethyl)-1-(oxooctyl)-, (±)-] | high activity
CCCCC(=O)N1CC(C(C)C)C1=O (racemic) [2-azetidinone, 3-(1-methylethyl)-1-(1-oxopentyl)-, (±)-] | high activity
CCCCCC(=O)N1C(=O)[C@@H]2CCCC[C@@H]21 (relative stereo) [Example 94, N-Hexanoyl-cis-3,4-tetramethylene-2-azetidinone] | high activity
CCCC(=O)N1CC(C(C)C)C1=O (stereo not drawn) [2-azetidinone, 3-(1-methylethyl)-1-(1-oxobutyl)-] | high activity
CCCCCC(=O)N1CC(C(C)C)C1=O (stereo not drawn) [2-azetidinone, 3-(1-methylethyl)-1-(1-oxohexyl)-] | high activity

Source: patent publication EP0232017A1 (priority 1986, dated 1987)
